Experimental findings from US20220073521A1, “PYRIMIDINE AND FIVE-MEMBERED NITROGEN HETEROCYCLE DERIVATIVE, PREPARATION METHOD THEREFOR, AND MEDICAL USES THEREOF” (Tuojie Biotech (Shanghai) Co., Ltd., priority 2018, published 2022) are described below.

Data set [1] can be described thus: Pharmacokinetics assay in rats. It is filed as in vivo, SD rats. The following applies: rat; for AUC / clearance / half-life / bioavailability / Cmax: male, SD, plasma; for AUC: read-out: Area under curve AUC; for clearance: read-out: Clearance CL_obs; for half-life: read-out: Half-life T1/2 (converted); for bioavailability: PO 5 mg/kg vs IV 1 mg/kg, read-out: Bioavailability F; for Cmax: read-out: Maximum plasma concentration Cmax. On the procedure:
Rats were used as test animals. The drug concentration in plasma at different time points was determined by LC/MS/MS method after intravenous administration or intragastrical administration of the compound of the present invention to rats. The pharmacokinetic behavior of the compound of the present invention was studied and evaluated in rats.
The atropisomer with a RT of 1.495 minutes in Examples 3 and 4, compounds of Example 17, Example 41 and Example 43.
Healthy male SD rats (6-8 weeks old), 3 rats per group.
Intravenous administration: A certain amount of the test compound was weighed, to which 10% by volume of N,N-dimethylacetamide, 33% by volume of triethylene glycol and 57% by volume of water were added to prepare a 1 mg/mL colorless, clear and transparent solution;
Intragastrical administration: A certain amount of the test compound was weighed, to which 0.5% by mass of hypromellose, 0.1% by volume of Tween 80 and 99.4% by volume of water were added to prepare a 1 mg/mL white suspension.
After an overnight fast, the SD rats were intravenously administered the test compound at an administration dose of 1 mg/kg, or intragastrically administered the test compound at an administration dose of 5 mg/kg.
The rats were intravenously administered the compound of the present invention. 0.2 ml of blood was taken from the jugular vein at 0.083, 0.25, 0.5, 1, 2, 4, 8 and 24 hours after the administration. The samples were placed in tubes containing EDTA-K2, and centrifuged at 4000 rpm and 4° C. for 5 minutes to separate the blood plasma. The plasma samples were stored at −75° C.
Or, the rats were intragastrically administered the compound of the present invention. 0.2 ml of blood was taken from the jugular vein at 0.25, 0.5, 1, 2, 4, 8 and 24 hours after the administration. The samples were placed in tubes containing EDTA-K2, and centrifuged at 4000 rpm and 4° C. for 5 minutes to separate the blood plasma. The plasma samples were stored at −75° C.
The content of the test compound in the plasma of rat after intragastrical administration of the test compound at different concentrations was determined: 50 μL of rat plasma at each time after administration was taken, to which 200 μL of a solution (50 ng/mL) of internal standard dexamethasone in acetonitrile was added. The plasma was vortex-mixed for 30 seconds, and centrifuged at 4700 rpm and 4° C. for 15 minutes. The supernatant was taken from the plasma samples, and a three-fold dilution was carried out by adding water. 2.0 μL of the supernatant was used for LC/MS/MS analysis.

In data set [2] the target is T1, hERG potassium channel (Homo sapiens, UniProt Q12809).
T1 construct: host or cells: CHO hERG cells
T1 sequence (Q12809 whole entry): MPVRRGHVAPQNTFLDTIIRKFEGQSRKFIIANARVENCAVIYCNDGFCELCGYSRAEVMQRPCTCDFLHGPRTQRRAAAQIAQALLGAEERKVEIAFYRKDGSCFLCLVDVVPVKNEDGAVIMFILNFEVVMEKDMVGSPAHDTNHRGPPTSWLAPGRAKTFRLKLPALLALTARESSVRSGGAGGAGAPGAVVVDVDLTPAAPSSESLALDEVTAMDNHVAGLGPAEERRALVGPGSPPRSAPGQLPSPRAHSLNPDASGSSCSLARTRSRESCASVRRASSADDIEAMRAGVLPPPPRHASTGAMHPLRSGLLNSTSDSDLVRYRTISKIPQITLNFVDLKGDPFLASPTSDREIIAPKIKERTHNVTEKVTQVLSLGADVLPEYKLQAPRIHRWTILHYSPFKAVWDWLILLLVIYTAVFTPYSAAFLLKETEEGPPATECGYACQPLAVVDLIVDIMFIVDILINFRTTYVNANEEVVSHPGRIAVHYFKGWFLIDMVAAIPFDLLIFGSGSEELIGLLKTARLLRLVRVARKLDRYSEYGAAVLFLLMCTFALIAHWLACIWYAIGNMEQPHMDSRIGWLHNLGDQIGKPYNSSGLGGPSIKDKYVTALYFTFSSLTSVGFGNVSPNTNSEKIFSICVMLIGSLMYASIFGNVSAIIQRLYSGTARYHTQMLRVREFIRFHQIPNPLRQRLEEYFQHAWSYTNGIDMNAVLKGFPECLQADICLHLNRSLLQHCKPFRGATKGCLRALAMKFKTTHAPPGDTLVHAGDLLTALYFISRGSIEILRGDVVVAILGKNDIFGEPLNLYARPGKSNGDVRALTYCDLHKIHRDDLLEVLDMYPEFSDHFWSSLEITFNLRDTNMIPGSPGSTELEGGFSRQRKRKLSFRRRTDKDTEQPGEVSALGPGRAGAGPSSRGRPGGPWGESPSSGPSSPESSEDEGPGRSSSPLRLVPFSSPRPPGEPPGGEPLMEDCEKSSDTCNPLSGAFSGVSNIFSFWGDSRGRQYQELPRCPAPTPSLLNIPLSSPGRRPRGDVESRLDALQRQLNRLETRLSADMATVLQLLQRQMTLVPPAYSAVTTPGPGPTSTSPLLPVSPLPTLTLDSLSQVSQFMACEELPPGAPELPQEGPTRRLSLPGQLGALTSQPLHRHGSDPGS
The data set is described as follows: hERG current inhibition experiment (manual patch clamp, CHO hERG cells). It is filed as cell-based. The note with it: whole-cell patch clamp, tail current. On the procedure:
In this experiment, whole-cell current recording was performed using a manual patch clamp system (HEKA EPC-10 signal amplification and digital conversion system, purchased from HEKA Electronic, Germany). The round glass slide of which surface CHO hERG cells (provided by Sophion Bioscience Inc., Denmark, the cell generation number was P21) were grown on was placed in an electrophysiological recording slot under an inverted microscope. The recording slot was continuously perfused with extracellular fluid (approximately 1 mL per minute). Conventional whole-cell patch clamp current recording technique was used in the experiment. The experiments were performed at normal room temperature (˜25° C.). The cells were clamped at a voltage of −80 mV. Cell patch clamp voltage was depolarized to +20 mV to activate hERG potassium channel, and to −50 mV after 5 seconds to eliminate inactivation and generate tail currents. The tail current peak was used as a value of hERG current. When the hERG potassium current recorded in the above steps became steady under continuous perfusion of the extracellular fluid in the recording slot, the drug to be tested could be added to the perfusion, until the inhibition effect of the drug on hERG current reached a steady state. Generally, the overlapping of most recent three consecutive current recording lines was used as a criterion to determine whether the state was stable. After reaching the steady state, the recording slot was perfused with extracellular fluid until the hERG current returned to the value before the drug adding. The test data was analyzed by HEKA Patchmaster (V2x73.2), Microsoft Excel and the data analysis software provided by Graphpad Prism 5.0.

Data set [3] deals with T2, SHP2 wild-type phosphatase (recombinantly expressed full-length SHP2, aa 1-593) (Homo sapiens, UniProt Q06124).
T2 sequence (Q06124 1-593): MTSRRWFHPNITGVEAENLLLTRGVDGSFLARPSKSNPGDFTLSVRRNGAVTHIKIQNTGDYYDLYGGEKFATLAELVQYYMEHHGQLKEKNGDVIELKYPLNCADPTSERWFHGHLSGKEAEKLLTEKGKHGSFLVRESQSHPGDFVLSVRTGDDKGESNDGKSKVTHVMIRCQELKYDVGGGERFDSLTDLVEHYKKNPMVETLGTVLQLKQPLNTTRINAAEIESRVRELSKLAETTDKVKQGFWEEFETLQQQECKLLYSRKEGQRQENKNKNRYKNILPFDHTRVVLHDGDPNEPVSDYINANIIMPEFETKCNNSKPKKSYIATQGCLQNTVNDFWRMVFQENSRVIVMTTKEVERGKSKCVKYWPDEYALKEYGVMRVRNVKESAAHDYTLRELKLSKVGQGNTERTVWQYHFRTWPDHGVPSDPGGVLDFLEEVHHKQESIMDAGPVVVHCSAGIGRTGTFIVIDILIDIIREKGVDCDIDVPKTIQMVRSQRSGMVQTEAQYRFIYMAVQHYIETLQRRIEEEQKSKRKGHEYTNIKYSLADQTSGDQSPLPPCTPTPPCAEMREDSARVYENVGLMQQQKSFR
The data set can be described thus: In vitro activity on SHP2 wild-type phosphatase (DiFMUP fluorescence).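 Note: enzyme preincubated at room temperature, then DiFMUP reaction run at room temperature and halted with SDS, potency derived from a logistic curve fit.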 The note with it: wild-type full-length SHP2, activated polypeptide IRS1 0.5 nM, DiFMUP 30 μM.

Read-outs that look alike come from different tables or passages of the source.

On to `CNc1nccc(Sc2c(C)nc(N3CCC4(CC3)Cc3ncccc3[C@H]4N)n3ccnc23)c1Cl` [Example 41, (S)-1′-(8-((3-Chloro-2-(methylamino)pyridin-4-yl)thio)-7-methylimidazo[1,2-c]pyrimidin-5-yl)-5,7-dihydrospiro[cyclopenta[b]pyridine-6,4′-piperidin]-5-amine], for which, in data set [1] (IV 1 mg/kg), the AUC is 1130 ± 210 ng·h/mL, the clearance is 14.6 ± 2.6 mL/min/kg, the half-life is 5.33 ± 0.11 h and the “Apparent distribution volume Vss_obs” value stood at 4.75 ± 0.72 L/kg. Besides, in data set [1], the bioavailability was determined as 67.6 ± 10.9%. In data set [1] (PO 5 mg/kg), the AUC is 3880 ± 631 ng·h/mL, the half-life was 4.22 ± 0.11 h and the Cmax worked out at 339 ± 88 ng/mL. The IC50 in data set [2] stood at 10.2 µM. In data set [3], the concentration for half-maximal inhibition (IC50) is 0.0021 µM.
Regarding `CNc1nccc(Sc2cnc(N3CCC4(CC3)Cc3ncccc3[C@H]4N)n3ccnc23)c1Cl` [Example 43, (S)-1′-(8-((3-Chloro-2-(methylamino)pyridin-4-yl)thio)imidazo[1,2-c]pyrimidin-5-yl)-5,7-dihydrospiro[cyclopenta[b]pyridine-6,4′-piperidin]-5-amine], in data set [1] (IV 1 mg/kg), the AUC was determined as 6640 ± 1360 ng·h/mL, the clearance stood at 2.52 ± 0.52 mL/min/kg, the half-life is 4.71 ± 0.27 h and the “Apparent distribution volume Vss_obs” value was 0.765 ± 0.082 L/kg. The bioavailability in data set [1] is 75.4 ± 7.5%. Also, in data set [1] (PO 5 mg/kg), the AUC came to 25200 ± 2500 ng·h/mL, the half-life is 4.17 ± 0.14 h and the Cmax is 2510 ± 405 ng/mL. In data set [2], the IC50 is 10.3 µM. In data set [3], the IC50 is 0.002 µM.
